Laboratory results published in patent US20240199661A1, “BICYCLIC HETEROARYL PHOSPHONATE DERIVATIVES AS ECTONUCLEOTIDE PYROPHOSPHATASE PHOSPHODIESTERASE 1 INHIBITORS” (RIBOSCIENCE LLC, priority 2021, published 2024).
Where a name gives a salt, the structure may show the parent alone.

Columns and labels:
ENPP1 = target: T1, ENPP1 (Homo sapiens, UniProt P22413); test: Measurement of pNP-TMP hydrolysis by ENPP1 (enzyme activity assay, absorbance at 405 nm); format: biochemical; conditions: purified ENPP1, 500 μM pNP-TMP, Km 232 μM; Ki from IC50 by Cheng-Prusoff
T1 sequence (P22413 1-925): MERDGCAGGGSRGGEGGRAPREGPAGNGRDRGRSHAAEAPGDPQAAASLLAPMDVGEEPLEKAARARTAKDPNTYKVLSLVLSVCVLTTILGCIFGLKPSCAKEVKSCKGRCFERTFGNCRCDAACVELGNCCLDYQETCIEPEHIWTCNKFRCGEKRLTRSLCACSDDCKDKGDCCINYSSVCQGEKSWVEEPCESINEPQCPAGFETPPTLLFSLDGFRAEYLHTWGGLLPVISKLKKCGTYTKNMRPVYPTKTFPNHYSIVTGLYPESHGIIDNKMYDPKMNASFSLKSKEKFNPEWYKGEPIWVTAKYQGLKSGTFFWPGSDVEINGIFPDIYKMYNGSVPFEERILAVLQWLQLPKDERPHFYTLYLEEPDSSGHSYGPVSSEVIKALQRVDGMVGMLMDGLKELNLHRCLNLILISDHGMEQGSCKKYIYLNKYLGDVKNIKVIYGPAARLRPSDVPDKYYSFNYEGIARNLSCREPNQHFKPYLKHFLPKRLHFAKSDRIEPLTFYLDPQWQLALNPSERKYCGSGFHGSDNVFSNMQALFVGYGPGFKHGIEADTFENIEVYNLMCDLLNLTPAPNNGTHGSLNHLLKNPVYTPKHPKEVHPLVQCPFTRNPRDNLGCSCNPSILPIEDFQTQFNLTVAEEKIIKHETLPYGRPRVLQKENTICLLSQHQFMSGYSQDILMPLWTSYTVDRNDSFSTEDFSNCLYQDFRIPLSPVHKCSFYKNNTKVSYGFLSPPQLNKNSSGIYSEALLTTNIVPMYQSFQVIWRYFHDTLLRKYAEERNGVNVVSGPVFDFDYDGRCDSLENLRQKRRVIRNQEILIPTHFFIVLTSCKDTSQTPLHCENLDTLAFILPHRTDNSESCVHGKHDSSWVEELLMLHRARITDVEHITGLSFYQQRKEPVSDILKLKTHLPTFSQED
Procedure: Measurement of pNP-TMP Hydrolysis by ENPP1
p-Nitrophenyl thymidine 5′-monophosphate (pNP-TMP) is a synthesized substrate for ENPP1. The ENPP1 enzyme activity assay with pNP-TMP substrate was conducted as follows:
First, in a 60 μl reaction, 7.5 ng purified ENPP1 was mixed with compounds of Formula (I) (test compound) ranging from 13.7 pM to 10 μM. Incubation of ENPP1 with compounds was set at 25° C. for 10 min. Reactions with DMSO only (with ENPP1 but no compound) gave the fastest reaction (MAX Activity). For each compound dilution, wells with assay buffer (50 mM Tris-HCl, pH8.8, 250 mM NaCl, 0.1 mg/ml BSA, 1% DMSO) only but no ENPP1 were included as controls for subtraction of test compound derived absorbance at 405 nm.
Second, after the 10 minutes ENPP1 and test compound incubation the assay was initiated by transferring 50 μl of the above mentioned ENPP1/test compound reaction into 50 μl of 1 mM pNP-TMP in assay buffer results in a 100 μl total reaction in clear bottom 96 well plates. Absorbance at 405 nm was recorded immediately in kinetic mode by PerkinElmer 2300 Enspire multimode plate reader.
For each inhibitor, the specific ENPP1 activity was calculated using the following equation: ENPP1 activity (pmol/min/μg)=Adjusted Vmax (OD405 nm/min)×conversion factor (pmol/OD405 nm)/amount of enzyme (μg)
Adjusted Vmax=V0×(Km+(S))/(S). In this assay, Km=232 μM, (S)=500 μM. Adjusted Vmax=1.464×V0.
V0=(OD405 nm with ENPP1−OD405 nm ENPP1 blank)/minutes. OD405 nm was plotted, with blank subtracted, against time (minutes), the initial linear rate is V0. […]
The conversion factor (pmol/OD405 nm), was determined by plotting the amount of standard, 4-Nitrophenol (Sigma-Aldrich, Catalog #241326), against absorbance at 405 nm. The slope is the conversion factor. The percent ENPP1 activity for each sample was calculated using the following equation:
% enzyme activity=sample enzyme activity/MAX Activity×100%.
To determine the IC50 for each compound, compound concentration values and percent enzyme activity values were inserted into GraphPad Prism (GraphPad Prism version 7.0 for Windows, GraphPad Software, La Jolla California USA, www.graphpad.com), and Prism's Transform analysis was used to convert the x-axis values (compound concentration) to logarithms. A sigmoidal variable slope nonlinear regression analysis was performed using the following equation: Y=Bottom+(Top−Bottom)/(1+10^((Log IC50−X)*HillSlope)).
Ki values for each compound were calculated from the observed IC50 from GraphPad analysis using the Cheng-Prusoff equation: Ki=IC50/(1+(S)/KM). (S) here is 500 μM and KM is determined to be 232 μM.

HGS tumor model = test: Anti-tumor activity in HGS tumor model; format: in vivo

| Ki (ENPP1) | SMILES | antitumor activity (HGS tumor model; 20/kg of compound) | tumor size (HGS tumor model; animals treated with 20/kg of compound, day 42 after inoculation (vehicle 645)) |
| --- | --- | --- | --- |
| – | C=CC(=O)N1CCN(CCCn2c(=O)c(-c3c(Cl)c(OC)cc(OC)c3Cl)cc3cnc(NC)nc32)CC1 [8-(3-(4-acryloylpiperazin-1-yl)propyl)-6-(2,6-dichloro-3,5-dimethoxyphenyl)-2-(methylamino)pyrido[2,3-d]pyrimidin-7(8H)-one] | significant antitumor activity and induced tumor regression | 55 mm3 |
| < 0.1 µM | Cn1ncc2ncnc(NCc3ccc(P(=O)(O)O)cc3)c21 [Compound 1, 4-[([1-methylpyrazolo[4,3-d]pyrimidin-7-yl]amino)methyl]-phenyl-phosphonic acid] | – | – |
| < 1 µM | CNC(=O)c1c[nH]c2c(NCc3ccc(P(=O)(O)O)cc3)ncnc12 [Compound 3, 4-([[7-(methylcarbamoyl)-5H-pyrrolo[3,2-d]pyrimidin-4-yl]amino]-methyl)phenylphosphonic acid] | – | – |
| < 1 µM | CNC(=O)c1c[nH]c2c(NCc3ccc(CP(=O)(O)O)cc3)ncnc12 [Compound 4, [4-([[7-(methylcarbamoyl)-5H-pyrrolo[3,2-d]pyrimidin-4-yl]amino]-methyl)phenyl]methylphosphonic acid] | – | – |
| < 1 µM | CNC(=O)c1c[nH]c2c(N3CCC(CCP(=O)(O)O)CC3)ncnc12 [Compound 6, 2-[1-[7-(methylcarbamoyl)-5H-pyrrolo[3,2-d]pyrimidin-4-yl]-piperidin-4-yl]ethylphosphonic acid] | – | – |
| < 1 µM | CNC(=O)c1c[nH]c2c(N3CCC(CP(=O)(O)O)CC3)ncnc12 [Compound 9, [1-[7-(methylcarbamoyl)-5H-pyrrolo[3,2-d]pyrimidin-4-yl]piperidin-4-yl]methylphosphonic acid] | – | – |
| < 10 µM | CNC(=O)c1c[nH]c2c(N3CCC(CCCP(=O)(O)O)CC3)ncnc12 [Compound 11, 3-[1-[7-(methylcarbamoyl)-5H-pyrrolo[3,2-d]pyrimidin-4-yl]-piperidin-4-yl]propylphosphonic acid] | – | – |
| < 0.1 µM | O=P(O)(O)c1ccc(CNc2ncnc3cn[nH]c23)cc1 [Compound 12, 4-([1H-pyrazolo[4,3-d]pyrimidin-7-ylamino]methyl)phenyl-phosphonic acid] | – | – |
| < 1 µM | NC(=O)c1n[nH]c2c(NCc3ccc(P(=O)(O)O)cc3)ncnc12 [Compound 14, 4-[([3-carbamoyl-1H-pyrazolo[4,3-d]pyrimidin-7-yl]amino)methyl]-phenylphosphonic acid] | – | – |
| < 0.1 µM | CC(=O)Nc1csc2c(NCc3ccc(P(=O)(O)O)cc3)ncnc12 [Compound 15, 4-[([7-acetamidothieno[3,2-d]pyrimidin-4-yl]amino)methyl]-phenylphosphonic acid] | – | – |
| < 0.1 µM | O=P(O)(O)c1ccc(CNc2ncnc3ccsc23)cc1 [Compound 16, 4-([thieno[3,2-d]pyrimidin-4-ylamino]methyl)phenyl-phosphonic acid] | – | – |
| < 1 µM | CC(C)c1nc(NCc2ccc(P(=O)(O)O)cc2)c2c(cnn2C)n1 [Compound 17, 4-(((5-isopropyl-1-methyl-1H-pyrazolo[4,3-d]pyrimidin-7-yl)amino)methyl)phenyl-phosphonic acid] | – | – |
| < 1 µM | CC(C)c1nc(NCc2ccc(P(=O)(O)O)cc2)c2[nH]ncc2n1 [Compound 18, 4-[([5-isopropyl-1H-pyrazolo[4,3-d]pyrimidin-7-yl]amino)methyl]phenylphosphonic acid formic acid salt] | – | – |

| SMILES | Ki (ENPP1) | antitumor activity (HGS tumor model; 20/kg of compound) | tumor size (HGS tumor model; animals treated with 20/kg of compound, day 42 after inoculation (vehicle 645)) |
| --- | --- | --- | --- |
| CCOP(=O)(CC1CCN(c2ncnc3c(C(=O)NC)c[nH]c23)CC1)OCC (single isomer, unassigned) [Compound 7, diethyl [1-[7-(methylcarbamoyl)-5H-pyrrolo[3,2-d]pyrimidin-4-yl]-piperidin-4-yl]methylphosphonate] | > 10 µM | – | – |
| CCOP(=O)(O)c1ccc(CNc2ncnc3c(C(=O)NC)c[nH]c23)cc1 [Compound 2, ethoxy(4-([[7-(methylcarbamoyl)-5H-pyrrolo[3,2-d]pyrimidin-4-yl]-amino]methyl)phenyl)phosphinic acid] | > 10 µM | – | – |
| CCOP(=O)(O)CCCC1CCN(c2ncnc3c(C(=O)NC)c[nH]c23)CC1 [Compound 10, ethoxy(3-[1-[7-(methylcarbamoyl)-5H-pyrrolo[3,2-d]pyrimidin-4-yl]-piperidin-4-yl]propyl)phosphinic acid] | > 10 µM | – | – |
